According to patent US5939437A, “CCK and gastrin receptor ligands” (James Black Foundation Limited, priority 1994, dated 1999):

Assays:
CCKB = molecular target: T1, CCKB (Mus musculus, UniProt P56481); assay: radioligand binding assay at the CCKB (CCK8 [sic]) receptor in mouse cortical membranes; conditions: [125I]-CCK8S 200 pM, 150 min at 21±3° C.; for Ki: read-out: CCKB pKi (converted)
T1 construct: The cortex was dissected, weighed and homogenised in 40 ml ice-cold buffer; from tissue; host or cells: cerebral cortex membranes of male CD1 mice (Charles River)
T1 sequence (P56481 1-453): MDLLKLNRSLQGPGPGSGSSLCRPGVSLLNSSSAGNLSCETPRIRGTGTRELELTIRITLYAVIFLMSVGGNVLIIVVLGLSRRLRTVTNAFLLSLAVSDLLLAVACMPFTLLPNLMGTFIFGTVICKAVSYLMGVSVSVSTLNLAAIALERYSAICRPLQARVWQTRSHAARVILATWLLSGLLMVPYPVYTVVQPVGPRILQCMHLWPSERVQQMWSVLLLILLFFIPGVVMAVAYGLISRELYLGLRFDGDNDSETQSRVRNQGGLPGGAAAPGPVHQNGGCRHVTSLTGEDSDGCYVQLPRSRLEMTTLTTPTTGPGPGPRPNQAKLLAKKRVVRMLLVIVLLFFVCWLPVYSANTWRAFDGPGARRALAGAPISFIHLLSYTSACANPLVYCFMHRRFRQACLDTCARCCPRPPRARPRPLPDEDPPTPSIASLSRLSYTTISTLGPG
Description: The compounds of the examples were tested for binding at the CCK8 receptor in mouse cortical membranes by means of a radioligand binding assay. The procedure was as follows: The whole brains from male mice (CD1 22-25 g; Charles River) were removed and placed in ice-cold buffer (pH7.2@21±3° C.) of the following composition (mM); 10 HEPES, 130 NaCl, 4.7 KCl, 5 MgCl2, 1 EDTA and containing 0.25 g.1^-1 bacitracin. The cortex was dissected, weighed and homogenised in 40 ml ice-cold buffer using a Teflon-in-glass homogeniser. The homogenate was centrifuged at 39,800 g for 20 min at 4° C., the supernatant discarded and the pellet resuspended by homogenisation in fresh buffer. The homogenate was recentrifuged (39,800 g; 20 min@4° C.) and the final pellet was resuspended in HEPES buffer to give a tissue concentration of 2 mg.ml^-1 (original wet weight). The membranes ([…]) were incubated for 150 min at 21±3° C. in a final volume of 0.5 ml with HEPES buffer containing [^25 I]-CCK8S (0.05 ml; 200 pM NEN 2200 Ci.mmol^-1) and competing compound. Total and non-specific binding of [^125 I]-CCK8S were defined using 0.05 ml of buffer and 0.05 ml of […] L-365,260, respectively. The assay was terminated by rapid filtration through pre-soaked Whatman GF/B 35 filters using a Brandell Cell harvester. The filters were washed (3×3 ml) with ice-cold 5 mM Tris-HCl (pH7.4@4° C.) and bound radioactivity determined by counting (1 min.) in a gamma-counter.

CCKA = molecular target: T2, CCKA (Cavia porcellus, UniProt Q63931); assay: CCKA binding assay (guinea-pig pancreas membranes); conditions: [125I]-CCK8(S) 200 pM, 0.375 μM PD134,308 present, 150 minutes at 21±3° C.; for Ki: read-out: CCKA pKi (converted)
T2 construct: The pancreatata were homogenised in 40 ml ice-cold HEPES buffer; from tissue; host or cells: pancreas membranes of male Dunkin Hartley guinea-pigs
T2 sequence (Q63931 1-430): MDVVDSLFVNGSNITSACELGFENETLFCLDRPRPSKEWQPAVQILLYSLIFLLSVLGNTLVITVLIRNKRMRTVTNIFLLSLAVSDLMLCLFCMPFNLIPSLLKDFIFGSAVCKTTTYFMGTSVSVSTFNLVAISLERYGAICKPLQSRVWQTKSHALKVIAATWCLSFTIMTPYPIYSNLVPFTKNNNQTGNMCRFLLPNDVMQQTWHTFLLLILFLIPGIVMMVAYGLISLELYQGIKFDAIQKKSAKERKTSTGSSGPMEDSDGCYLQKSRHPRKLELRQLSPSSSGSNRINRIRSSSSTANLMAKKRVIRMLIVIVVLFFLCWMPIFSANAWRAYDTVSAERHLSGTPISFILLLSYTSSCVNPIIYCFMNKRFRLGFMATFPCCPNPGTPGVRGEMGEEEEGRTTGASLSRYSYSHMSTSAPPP
Description: The compounds of the examples were also tested in a CCKA binding assay as follows:
The pancreatata were removed from male guinea-pigs (200-300 g; Dunkin Hartley) and placed in ice-cold HEPES buffer (pH 7.2@21 ±3° C.). The pancreatata were homogenised in 40 ml ice-cold HEPES buffer using a polytron (Brinkman, PT10, setting 10) 4×1 second. The homogenate was centrifuged at 39,800 g for 15 min at 4° C. The supernatant was discarded and the pellet re-suspended using a Teflon-in-glass homogeniser in 20 volumes of fresh buffer and re-centrifuged as above. The final pellet was re-suspended using a Teflon-in-glass homogeniser to a tissue concentration of 1 mg.ml^-1 (original wet weight), and filtered through 500 μm pore-size Nytex mesh.
The membranes (400 μl; containing 0.375 μM PD134,308) are incubated for 150 minutes at 21±3° C. in a final volume of 0.5 ml with HEPES buffer containing [^125 I]-CCK8 (S) (50 μl; 200 pM) and competing compound. Total and non-specific binding of [^125 I]-CCK^8 (S) are defined using 50 μl of buffer and 50 μl of 100 nM L-364,718respectively. The assay is terminated by rapid filtration through pre-soaked Whatman GF/B filters using a Brandell Cell Harvester. The filters were washed (3×3 ml) with ice-cold 50 mM Tris HCl (pH 7.4 at 4° C. and bound radioactivity is determined by counting (1 min) in a gamma counter.

Gastrin = molecular target: T3, Gastrin (Rattus norvegicus, UniProt P30553); assay: gastrin antagonist activity in an immature rat stomach assay (pentagastrin-stimulated acid secretion, isolated stomach); conditions: cumulative pentagastrin dose-response curves, 60 min after drug; for Kb: read-out: Gastrin pKB (converted)
T3 construct: The stomach was excised and flushed with ca. 1 ml unbuffered physiological saline solution; from tissue; host or cells: isolated whole stomach of immature rats (33-50 g, ca. 21 days old)
T3 sequence (P30553 1-452): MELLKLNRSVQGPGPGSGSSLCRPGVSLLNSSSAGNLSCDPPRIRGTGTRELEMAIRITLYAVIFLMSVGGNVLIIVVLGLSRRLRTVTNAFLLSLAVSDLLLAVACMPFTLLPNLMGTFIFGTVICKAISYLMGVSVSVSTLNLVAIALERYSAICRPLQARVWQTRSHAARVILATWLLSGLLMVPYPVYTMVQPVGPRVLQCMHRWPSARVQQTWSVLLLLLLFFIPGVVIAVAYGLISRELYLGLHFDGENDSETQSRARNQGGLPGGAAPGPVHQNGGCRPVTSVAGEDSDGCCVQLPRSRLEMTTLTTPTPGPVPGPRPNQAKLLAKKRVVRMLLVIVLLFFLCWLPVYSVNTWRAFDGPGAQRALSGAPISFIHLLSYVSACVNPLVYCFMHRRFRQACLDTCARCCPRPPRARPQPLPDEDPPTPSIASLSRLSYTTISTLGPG
Description: The compounds of the examples were also tested for gastrin antagonist activity in an immature rat stomach assay. The procedure was follows:
The oesophagus of immature rats (33-50 g, ca. 21 days old) was ligated at the level of the cardiac sphincter and the duodenal sphincter was cannulated. The stomach was excised and flushed with ca. 1 ml unbuffered physiological saline solution. The fundus was punctured and cannulated. A further 4-5 ml of unbuffered solution was flushed through the stomach to ensure the preparation was not leaking. The stomach was lowered into a jacketed organ bath containing 40 ml of buffered solution containing 3×10^-8 M5methylfurmethide, maintained at 37° and gassed vigorously with 95% O2 /5% CO2. The stomach was continuously perfused at a rate of 1 ml min^-1 with unbuffered solution gassed with 100% O2 with the perfusate passing over an internally referenced pH-electrode fixed 12 cm above the stomach.
After 120 min of stabilisation the drugs were added directly to the serosal solution in the organ bath and after a further 60 min cumulative pentagastrin dose-response curves were started. Changes in acid secretion were monitored and the curves analysed according to Black et. al., Br. J. Pharmacol., 1985, 86, 581.

**Q.** Which results are given for `O=C(O)c1cc(NC(=O)[C@H](Cc2ccccc2)NC(=O)c2ccccc2C(=O)NCc2cccc3ccccc23)cc(C(=O)O)c1` [Example 5, (1R-(3,5-dicarboxyphenylaminocarbonyl)-2-phenylethylaminocarbonyl)-2-(1-naphthalenemethylaminocarbonyl)-benzene]?
**A.** CCKB pKi (CCKB): 6.3; CCKA pKi (CCKA): 7.0

**Q.** Which results are given for `O=C(Cc1ccccc1C(=O)NCC12CC3CC(CC(C3)C1)C2)N[C@@H](Cc1ccccc1)C(=O)Nc1cc(C(=O)O)cc(C(=O)O)c1` [Example 8, (1S-(3,5-dicarboxyphenylaminocarbonyl)-2-phenylethylaminocarbonylmethyl)-2-(1-adamantanemethylamino-carbonyl)benzene]?
**A.** Ki (CCKB): 158 nM; Ki (CCKA): 3160 nM

**Q.** With `O=C(Cc1ccccc1C(=O)N[C@@H](Cc1ccccc1)C(=O)Nc1cc(C(=O)O)cc(C(=O)O)c1)NCC12CC3CC(CC(C3)C1)C2` [Example 9, (1S-(3,5-dicarboxyphenylaminocarbonyl)-2-phenylethylaminocarbonyl)-2-(1-adamantanemethylaminocarbonyl-methyl)benzene] as the molecule, how does the Ki (CCKB) read?
**A.** The Ki was 251 nM.

**Q.** What about the Ki (CCKA) of the same molecule?
**A.** The Ki was 3160 nM.

**Q.** For `COc1ccc(C(=O)N[C@@H](Cc2ccccc2)C(=O)Nc2cc(C(=O)O)cc(C(=O)O)c2)c(C(=O)NCC23CC4CC(CC(C4)C2)C3)c1` [Example 18, 1-(1S-(3,5-dicarboxyphenylamino-carbonyl)-2-phenylethylaminocarbonyl)-2-(1-adamantanemethyl-aminocarbonyl)-4-methoxybenzene], which Ki (CCKB) is on record?
**A.** Its Ki is 25.1 nM.

**Q.** What about the Kb (Gastrin) of the same molecule?
**A.** The Kb was 31.6 nM.

**Q.** Which “CCKB pKi” value (CCKB) does the source give for `O=C(O)c1cc(NC(=O)[C@H](Cc2ccccc2)NC(=O)c2c(F)ccc(F)c2C(=O)NCC23CC4CC(CC(C4)C2)C3)cc(C(=O)O)c1` [Example 22, 1-(1S-(3,5-dicarboxyphenylamino-carbonyl)-2-phenylethylaminocarbonyl)-2-(1-adamantanemethyl-aminocarbonyl)-3,6-difluorobenzene] here?
**A.** The value was 7.3.

**Q.** And the “Gastrin pKB” value (Gastrin)?
**A.** The value was 7.5.

**Q.** Which results are given for `O=C(O)c1cc(NC(=O)[C@H](Cc2ccccc2)NC(=O)c2cc(O)ccc2C(=O)NCC23CC4CC(CC(C4)C2)C3)cc(C(=O)O)c1` [Example 23, 1-(1S-(3,5-dicarboxyphenylamino-carbonyl)-2-phenylethylaminocarbonyl)-2-(1-adamantanemethylamino-carbonyl)-5-hydroxybenzene]?
**A.** Ki (CCKB): 316 nM; Kb (Gastrin): 126 nM

**Q.** What does the source list for `CNc1ccc(C(=O)N[C@@H](Cc2ccccc2)C(=O)Nc2cc(C(=O)O)cc(C(=O)O)c2)c(C(=O)NCC23CC4CC(CC(C4)C2)C3)c1` [Example 24, 1-(1S-(3,5-dicarboxyphenylamino-carbonyl)-2-phenylethylaminocarbonyl)-2-(1-adamantanemethyl-aminocarbonyl)-4-methylaminobenzene]?
**A.** Ki (CCKB): 7.94 nM; Kb (Gastrin): 5.01 nM

**Q.** Which Ki (CCKB) does the source give for `CN(C)c1ccc(C(=O)N[C@@H](Cc2ccccc2)C(=O)Nc2cc(C(=O)O)cc(C(=O)O)c2)c(C(=O)NCC23CC4CC(CC(C4)C2)C3)c1` [Example 25, 1-(1S-(3,5-dicarboxyphenylamino-carbonyl)-2-phenylethylaminocarbonyl)-2-(l-adamantanemethyl-aminocarbonyl)-4-dimethylaminobenzene] here?
**A.** Its Ki is 1.58 nM.

**Q.** And the Kb (Gastrin)?
**A.** The Kb was 2.51 nM.

**Q.** Which results are given for `O=C(O)c1cc(NC(=O)[C@H](Cc2ccccc2)N2Cc3cccc(C(=O)NCC45CC6CC(CC(C6)C4)C5)c3C2=O)cc(C(=O)O)c1` [Example 27, 7-(1-adamantanemethylaminocarbonyl)-2-(1S-(3,5-dicarboxyphenylaminocarbonyl)-2-phenylethyl) indol-1-one]?
**A.** Ki (CCKB): 126 nM; Ki (CCKA): 3160 nM

**Q.** How did the Ki (CCKB) turn out when `COc1ccc(C(=O)N[C@@H](Cc2ccccc2F)C(=O)Nc2cc(C(=O)O)cc(C(=O)O)c2)c(C(=O)NCC23CC4CC(CC(C4)C2)C3)c1` [Example 28, 1-(1S-(3,5-dicarboxyphenylamino-carbonyl)-2-(2-fluorophenyl)ethylaminocarbonyl)-2-(1-adamantane-methylaminocarbonyl)-4-methoxybenzene] was run?
**A.** Its Ki is 15.8 nM.

**Q.** What about the Kb (Gastrin) of the same molecule?
**A.** Its Kb is 12.6 nM.

**Q.** `COc1ccc(C(=O)NCC23CC4CC(CC(C4)C2)C3)c(C(=O)N[C@@H](Cc2ccccc2F)C(=O)Nc2cc(C(=O)O)cc(C(=O)O)c2)c1` [Example 29, 1-(1S-(3,5-dicarboxyphenylamino-carbonyl)-2-(2-fluorophenyl)ethylaminocarbonyl)-2-(1-adamantane-methylaminocarbonyl)-5-methoxybenzene] was tested. Which Ki (CCKB) did it give?
**A.** The Ki was 15.8 nM.

**Q.** And the Kb (Gastrin)?
**A.** The Kb was 1580 nM.
